Laboratory results reported in patent US20060140857A1, “Method of the administration of drugs with binding affinity for plasma protein and preparation to be used in the method” (NIHON MEDI-PHYSICS CO., LTD., priority 1999, published 2006).

What was measured:
serum albumin = serum albumin (Homo sapiens, UniProt P02768); assay: Displacement of 99mTc-ECD binding to plasma protein, human serum; conditions: second drug 200 μM and 400 μM
[1] = Biodistribution of 99mTc-MAG3 in rat loaded with bucolome; format: in vivo, Wister-strain rat; conditions: rats, bucolome loading, FIG. 3
Description: Effect of second drug on biodistribution of ^99mTc-MAG3 in rat was examined using the control group and the test group with bucolome loading. ^99mTc-MAG3 (740 kBq/100 μl) was administered to the tail vein of Wister-strain rat. The rats were decapitated at 2, 5, 10 and 15 minutes after administration of ^99mTc-MAG3, then the blood and the organs of interest were excised. After measured the weight of these orgams, the radioactivities were determined. After decay correction of the radioactivity, the accumulation ratios (% dose/organ and % dose/g of the tissue) were determined.
As for the rat of test group loaded with bucolome, 5 minutes before the administration of ^99mTc-MAG3, 20 mg/kg of body weight or 100 mg/kg of body weight of bucolome was administered to the tail vein.

[2] = Free fraction of 99mTc-MAG3 in rat blood after administration of bucolome; format: in vivo; conditions: rats, bucolome loading 20 mg/kg, FIG. 4
Description: In the control group and test group with bucolome loading of 20 mg/kg of body weight, wherein the dose and other conditions were the same as mentioned above, except the decapitation time was prescribed at 2, 5 and 10 minutes, administrations and decapitations of rats were conducted so that 3-5 ml of blood per one rat were collected. Serum was separated using a sample tube, after that the free fraction was determined by the procedures as described in Example 1.

[3] = biological target: human serum albumin (HSA) (Homo sapiens, UniProt P02768); assay: Displacement of 99mTc-MAG3 binding to serum albumin, human serum, ultrafiltration; conditions: human serum, second drug added
Chain of human serum albumin (HSA) (P02768 25-609): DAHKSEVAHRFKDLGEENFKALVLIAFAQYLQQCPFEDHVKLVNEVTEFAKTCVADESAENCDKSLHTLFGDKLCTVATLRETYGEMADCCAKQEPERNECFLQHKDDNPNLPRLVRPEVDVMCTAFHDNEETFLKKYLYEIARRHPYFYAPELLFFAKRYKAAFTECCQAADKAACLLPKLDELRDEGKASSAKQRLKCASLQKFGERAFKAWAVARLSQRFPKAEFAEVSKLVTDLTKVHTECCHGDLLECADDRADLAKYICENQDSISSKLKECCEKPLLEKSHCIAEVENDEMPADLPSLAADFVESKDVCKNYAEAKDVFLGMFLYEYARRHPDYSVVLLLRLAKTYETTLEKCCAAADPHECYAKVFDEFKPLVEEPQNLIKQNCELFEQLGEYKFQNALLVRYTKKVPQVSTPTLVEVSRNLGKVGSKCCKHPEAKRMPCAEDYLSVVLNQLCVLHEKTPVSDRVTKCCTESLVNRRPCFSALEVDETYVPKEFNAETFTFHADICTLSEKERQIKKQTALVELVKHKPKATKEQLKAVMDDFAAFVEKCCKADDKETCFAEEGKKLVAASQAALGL
Description: Displacement test of ^99mTc-MAG3 binding to serum albumin was conducted as follows by use of human serum or rat serum and site-specific drugs (second drugs) with binding affinity for the binding site I or site II on albumin.
First, albumin content in a normal human serum was measured previously, and the concentration of the human serum albumin (HSA) was adjusted to 500 μM by phosphate buffer (pH=7.4).
Further, a site-specific drug with the binding affinity for the site I or the site II on HSA was added to the above-mentioned serum solution, as in the form of a methanol solution or an aqueous solution. As the sample solution for control group, only methanol or water was added to the above-mentioned serum solution.
Next, a certain amount of ^99mTc-MAG3 (about 740 kBq/20 μl) was added to each of the sample and a certain amount (20-50 μl) of the sample was taken out as the specimen before ultrafiltration. […] Then, 20-50 μl each of the filtrates was taken out as the specimen after ultrafiltration. Radioactivities (cpm) of the specimens before and after ultrafiltration were measured, and the free fraction (%) of ^99mTc-MAG3 was calculated by the following equation: free fraction of ^99mTc-MAG3 (%)=[A]/[B] [A]: Radioactivity (cpm) after ultrafiltration, [B]: Radioactivity (cpm) before ultrafiltration

Chain of serum albumin (P02768 25-609): as above

## CCCCC1C(=O)NC(=O)N(C2CCCCC2)C1=O (stereo not shown) [bucolome, 5-n-butyl-1-cyclohexyl-2,4,6-trioxoperhydropyrimidine]
Serum albumin
  change of free fraction of 99mTc-ECD compared with control: also incresed
[1]
  effect on blood clearance of 99mTc-MAG3: accelarated
[2]
  effect on free fraction of 99mTc-MAG3 in vivo: remarkably increased
[3]
  change of free fraction of 99mTc-MAG3 compared with control: significantly increased
